The record followed here is ChEMBL document CHEMBL2311347, “The discovery of fused oxadiazepines as gamma secretase modulators for treatment of Alzheimer's disease” (Bioorg Med Chem Lett, 2013).

Data set [1] concerns the target Gamma-secretase (Homo sapiens) (UniProt Q96BI3+Q9NZ42+Q8WW43+P49768+Q92542+P49810). The data set is described as follows: Inhibition of gamma secretase (unknown origin) assessed as ratio of Abeta to Abeta42 level. It is filed as protein-complex assay.
Another data set deals with hERG (Homo sapiens, UniProt Q12809). The data set is described as follows: Inhibition of human ERG at 10 uM.
For a further data set, the target named is Gamma-secretase. Briefly: Inhibition of gamma secretase (unknown origin) assessed as reduction of Abeta42 production. Type of data set: protein-complex assay, Homo sapiens.
Data set [2] relates to Rattus norvegicus. Briefly: Antialzheimer's disease activity in rat assessed as reduction in Abeta42 level at 10 mg/kg, po measured after 3 hrs post dose. It is filed as functional.
Another data set deals with Cytochrome P450 3A4 (Homo sapiens, UniProt P08684). Briefly: Inhibition of CYP3A4 (unknown origin). It is filed as ADME.
For data set [3], the system named is Rattus norvegicus. The data set is described as follows: Antialzheimer's disease activity in rat assessed as reduction in Abeta42 level at 30 mg/kg, po measured after 3 hrs post dose. Type of data set: functional.
For data set [4], the system named is Rattus norvegicus. The data set is described as follows: Antialzheimer's disease activity in po dosed rat assessed as reduction in Abeta42 level measured after 3 hrs post dose. Type of data set: functional, organism-based.
The subject of data set [5] is Rattus norvegicus. The data set is described as follows: Antialzheimer's disease activity in rat assessed as reduction in Abeta42 level at 3 mg/kg, po measured after 3 hrs post dose. Type of data set: functional.
Data set [6] has as its target T1, Nuclear receptor subfamily 1 group I member 2 (Homo sapiens, UniProt O75469).
T1 sequence (O75469 whole entry): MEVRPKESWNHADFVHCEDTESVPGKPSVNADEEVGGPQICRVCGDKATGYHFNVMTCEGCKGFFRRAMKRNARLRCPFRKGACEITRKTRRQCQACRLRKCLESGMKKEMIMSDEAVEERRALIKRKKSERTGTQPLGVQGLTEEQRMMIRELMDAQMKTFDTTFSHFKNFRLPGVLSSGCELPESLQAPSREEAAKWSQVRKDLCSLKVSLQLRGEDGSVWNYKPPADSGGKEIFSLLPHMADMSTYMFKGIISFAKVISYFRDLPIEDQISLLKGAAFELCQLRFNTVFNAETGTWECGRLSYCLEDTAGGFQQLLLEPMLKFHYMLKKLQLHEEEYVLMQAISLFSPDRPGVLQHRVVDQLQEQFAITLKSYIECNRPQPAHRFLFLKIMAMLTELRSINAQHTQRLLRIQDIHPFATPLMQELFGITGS
Briefly: Activation of PXR (unknown origin) assessed as induction of CYP1A1 expression up to 30 uM relative to untreated control. Type of data set: ADME.

A short description of data set [7]: AUC in rat at 10 mg/kg, po measured after 6 hrs post dose. Type of data set: ADME, organism-based. Set-up: time < 6 hr, dose 10 mg/kg, route oral. Conditions: plasma.
The nature of data set [8]: Ratio of drug level in brain to plasma in rat at 10 mg/kg, po measured after 6 hrs post dose. The settings on record: read-out: BPR. Set-up: dose 10 mg/kg, route oral. Type of data set: ADME, organism-based.
Data set [9] has as its target T1, Nuclear receptor subfamily 1 group I member 2. Briefly: Activation of PXR (unknown origin) assessed as induction of CYP2B1/2 expression up to 30 uM relative to untreated control. Type of data set: ADME.
The target is the same in data set [10]. Briefly: Activation of PXR (unknown origin) assessed as induction of CYP3A1 expression up to 30 uM relative to untreated control. It is filed as ADME.
In a further data set the target is Cytochrome P450 2C9 (Homo sapiens, UniProt P11712). The data set is described as follows: Inhibition of CYP2C9 (unknown origin). Type of data set: ADME.
The target of another data set is Cytochrome P450 2D6 (Homo sapiens, UniProt P10635). Briefly: Inhibition of CYP2D6 (unknown origin). Type of data set: ADME.
The nature of data set [11]: Drug level in rat brain at 10 mg/kg, po measured after 6 hrs post dose. Set-up: dose 10 mg/kg, route oral. Type of data set: ADME, organism-based. The settings on record: read-out: Drug uptake.

In general, inhibition refers to the percentage by which the read-out fell short of the control. The IC50 is the concentration at which inhibition is half-maximal. For orientation: inhibition in vivo means the drop in the measured response relative to a control, in per cent. For orientation: AUC means concentration integrated over time.

Sequence of hERG (Q12809 whole entry): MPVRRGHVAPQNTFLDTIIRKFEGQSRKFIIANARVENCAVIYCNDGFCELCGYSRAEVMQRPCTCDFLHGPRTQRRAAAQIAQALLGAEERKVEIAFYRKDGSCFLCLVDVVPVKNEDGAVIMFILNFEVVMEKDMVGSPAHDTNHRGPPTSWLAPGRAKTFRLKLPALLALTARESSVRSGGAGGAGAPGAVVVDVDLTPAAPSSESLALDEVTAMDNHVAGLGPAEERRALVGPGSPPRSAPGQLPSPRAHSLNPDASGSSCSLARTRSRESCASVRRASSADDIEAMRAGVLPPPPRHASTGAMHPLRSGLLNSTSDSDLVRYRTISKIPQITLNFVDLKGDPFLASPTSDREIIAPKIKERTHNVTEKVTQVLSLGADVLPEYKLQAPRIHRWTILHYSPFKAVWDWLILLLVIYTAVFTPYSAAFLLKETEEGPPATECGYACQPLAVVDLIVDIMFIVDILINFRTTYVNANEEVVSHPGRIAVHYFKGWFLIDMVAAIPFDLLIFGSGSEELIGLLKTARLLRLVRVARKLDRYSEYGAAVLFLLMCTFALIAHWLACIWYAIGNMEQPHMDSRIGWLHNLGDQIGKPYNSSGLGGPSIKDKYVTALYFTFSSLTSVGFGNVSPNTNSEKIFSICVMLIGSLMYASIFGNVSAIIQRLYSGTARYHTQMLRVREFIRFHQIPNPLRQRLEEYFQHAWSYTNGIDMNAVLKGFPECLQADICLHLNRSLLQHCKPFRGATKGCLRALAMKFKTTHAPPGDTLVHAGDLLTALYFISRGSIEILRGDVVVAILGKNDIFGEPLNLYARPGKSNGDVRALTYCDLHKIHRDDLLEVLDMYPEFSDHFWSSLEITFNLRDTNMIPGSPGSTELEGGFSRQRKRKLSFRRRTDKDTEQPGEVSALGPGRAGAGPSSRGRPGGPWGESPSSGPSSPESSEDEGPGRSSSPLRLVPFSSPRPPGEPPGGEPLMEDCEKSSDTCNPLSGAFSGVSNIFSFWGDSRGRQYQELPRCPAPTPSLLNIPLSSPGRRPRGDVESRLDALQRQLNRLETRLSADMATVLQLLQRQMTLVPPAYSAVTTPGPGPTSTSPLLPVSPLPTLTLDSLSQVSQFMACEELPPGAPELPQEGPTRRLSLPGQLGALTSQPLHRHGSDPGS
Sequence of Cytochrome P450 3A4 (P08684 whole entry): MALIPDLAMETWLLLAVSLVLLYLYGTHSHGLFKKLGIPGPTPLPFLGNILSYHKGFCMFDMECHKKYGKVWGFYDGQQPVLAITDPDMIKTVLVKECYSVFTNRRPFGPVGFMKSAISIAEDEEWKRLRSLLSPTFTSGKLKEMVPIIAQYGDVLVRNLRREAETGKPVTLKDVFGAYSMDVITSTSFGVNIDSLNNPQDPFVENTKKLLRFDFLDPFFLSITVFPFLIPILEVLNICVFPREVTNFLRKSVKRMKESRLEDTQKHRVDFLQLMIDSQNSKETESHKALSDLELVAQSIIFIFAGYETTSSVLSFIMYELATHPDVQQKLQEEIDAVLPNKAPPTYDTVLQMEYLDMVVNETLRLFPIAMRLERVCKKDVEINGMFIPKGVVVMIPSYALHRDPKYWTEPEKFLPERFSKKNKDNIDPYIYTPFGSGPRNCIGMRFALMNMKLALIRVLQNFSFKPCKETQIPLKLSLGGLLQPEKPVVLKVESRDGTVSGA
Sequence of Cytochrome P450 2C9 (P11712 whole entry): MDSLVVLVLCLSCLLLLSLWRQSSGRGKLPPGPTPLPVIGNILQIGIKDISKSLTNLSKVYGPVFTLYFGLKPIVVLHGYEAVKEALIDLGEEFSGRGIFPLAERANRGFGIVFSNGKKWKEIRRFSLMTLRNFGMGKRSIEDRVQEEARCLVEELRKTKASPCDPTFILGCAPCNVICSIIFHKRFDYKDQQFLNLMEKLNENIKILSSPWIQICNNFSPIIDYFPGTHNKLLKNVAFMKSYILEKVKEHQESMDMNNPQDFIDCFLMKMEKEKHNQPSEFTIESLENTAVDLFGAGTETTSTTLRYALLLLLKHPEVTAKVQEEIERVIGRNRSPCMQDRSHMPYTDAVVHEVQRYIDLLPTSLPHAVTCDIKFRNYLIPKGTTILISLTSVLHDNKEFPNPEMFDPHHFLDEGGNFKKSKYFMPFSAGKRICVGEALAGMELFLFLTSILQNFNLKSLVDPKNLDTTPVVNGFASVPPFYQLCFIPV
Sequence of Cytochrome P450 2D6 (P10635 whole entry): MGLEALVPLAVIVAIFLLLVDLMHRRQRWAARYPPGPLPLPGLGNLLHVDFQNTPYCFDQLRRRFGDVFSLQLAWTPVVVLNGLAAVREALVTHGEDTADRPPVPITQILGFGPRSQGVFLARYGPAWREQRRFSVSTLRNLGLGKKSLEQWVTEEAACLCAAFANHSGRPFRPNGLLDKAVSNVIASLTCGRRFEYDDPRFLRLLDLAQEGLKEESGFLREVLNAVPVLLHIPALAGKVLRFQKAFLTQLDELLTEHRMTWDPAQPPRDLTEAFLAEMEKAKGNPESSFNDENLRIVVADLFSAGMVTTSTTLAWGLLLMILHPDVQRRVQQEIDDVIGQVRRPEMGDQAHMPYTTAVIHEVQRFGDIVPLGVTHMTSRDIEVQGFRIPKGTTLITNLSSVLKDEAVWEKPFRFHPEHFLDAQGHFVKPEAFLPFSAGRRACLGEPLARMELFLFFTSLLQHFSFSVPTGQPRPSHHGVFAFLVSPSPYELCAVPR

In the case of `COc1cc(/C=C2\CCCN3CCC(c4cc(F)c(F)c(F)c4)ON=C23)ccc1-n1cnc(C)c1` (configuration not stated), in data set [1], the Ratio came out at 364. At hERG, this compound came in with an inhibition at 10 µM of 89%. Besides, the IC50 on Gamma-secretase was found to be 0.053 µM.
Consider `COc1cc(/C=C2\CCCN3C2=NOCC[C@@H]3c2cc(F)cc(Cl)c2)ccc1-n1cnc(C)c1`, for which the Ratio in data set [1] was 480. Also, the inhibition in vivo at 10 mg/kg in the data set with Rattus norvegicus [2] stood at 59%. In addition, the inhibition at 10 µM against hERG is 53%. For the same compound, the IC50 on Gamma-secretase is 0.016 µM.
As for `COc1cc(/C=C2\CCCN3CCC(c4ccccc4)ON=C23)ccc1-n1cnc(C)c1` (configuration not stated), the Ratio in [1] was 489. Besides, testing at 10 µM against hERG gave an inhibition of 93%. In addition, the IC50 on Gamma-secretase came to 0.041 µM.
For `COc1cc(/C=C2\CCCN3C2=NOC[C@@H]3c2cc(F)c(F)c(F)c2)ccc1-n1cnc(C)c1`, in [1], the Ratio stood at 607.
Regarding `COc1cc(/C=C2\CCCN3C2=NOCC[C@@H]3c2ccc(F)cc2F)ccc1-n1cnc(C)c1`, the Ratio in data set [1] stood at 354. The inhibition in vivo at 10 mg/kg in the data set on Rattus norvegicus [2] turned out to be 23%. For the same compound, on Gamma-secretase, the IC50 is 0.052 µM.
For `COc1cc(/C=C2\CCCN3C2=NOCC[C@@H]3c2cc(F)cc(F)c2)ccc1-n1cnc(C)c1`, the Ratio in [1] was found to be 392. Besides, the inhibition in vivo at 10 mg/kg with Rattus norvegicus [2] worked out at 39%. At hERG, at 10 µM the inhibition was 49%. Moreover, the IC50 at Gamma-secretase came to 0.037 µM.
On to `COc1cc(/C=C2\CCCN3CC(c4ccccc4)CON=C23)ccc1-n1cnc(C)c1` (configuration not stated), for which, in data set [1], the Ratio is 140. The IC50 on Gamma-secretase was 0.14 µM.
Take `COc1cc(/C=C2\CCCN3C2=NOCC[C@@H]3c2ccc(F)c(Cl)c2)ccc1-n1cnc(C)c1`: the Ratio in [1] was 340. For the same compound, in the data set on Rattus norvegicus [2], the inhibition in vivo at 10 mg/kg was found to be 38%. On hERG, this compound gave an inhibition at 10 µM of 39%. The IC50 at Gamma-secretase is 0.04 µM.
As for `COc1cc(/C=C2\CCCN3CCC(c4cc(F)cc(F)c4)ON=C23)ccc1-n1cnc(C)c1` (configuration not stated), the Ratio in data set [1] turned out to be 371. At Gamma-secretase, the IC50 was found to be 0.041 µM.
Take `COc1cc(/C=C2\CCCN3C2=NOCC[C@@H]3c2cccc(F)c2)ccc1-n1cnc(C)c1`: the Ratio in data set [1] is 572. The compound also yielded an inhibition at 10 µM at hERG of 86%. The IC50 at Gamma-secretase amounted to 0.035 µM.
As to `COc1cc(/C=C2\CCCCN3C2=NOC[C@@H]3c2ccc(F)cc2)ccc1-n1cnc(C)c1`, the Ratio in data set [1] stood at 35. For the same compound, the IC50 at Gamma-secretase turned out to be 0.58 µM.
Turning to `COc1cc(/C=C2\CCCN3C2=NOCC[C@@H]3c2ccc(F)c(F)c2)ccc1-n1cnc(C)c1`, the Ratio in [1] worked out at 466. Further, in the data set with Rattus norvegicus [2], the inhibition in vivo at 10 mg/kg worked out at 48%. The same compound registered an inhibition at 10 µM at hERG of 56%. On Gamma-secretase, the IC50 came out at 0.024 µM.
As to `COc1cc(/C=C2\CCCN3C2=NOCC[C@@H]3c2cc(F)c(F)c(F)c2)ccc1-n1cnc(C)c1`, the IC50 at Cytochrome P450 3A4 was over 30 µM; on Gamma-secretase, 0.039 µM; against Cytochrome P450 2C9, over 30 µM; against Cytochrome P450 2D6 it was over 30 µM. The Ratio in data set [1] was 510. Further, the inhibition in vivo at 10 mg/kg in the data set on Rattus norvegicus [2] was 61%. Besides, the inhibition in vivo at 30 mg/kg with Rattus norvegicus [3] was 78%. On hERG, this compound returned an inhibition at 10 µM of 33%. Also, the inhibition result with Rattus norvegicus [4] is “Dose-dependent effect”. In addition, the inhibition in vivo at 3 mg/kg in the data set on Rattus norvegicus [5] is 43%. In addition, the Activity turned out to be 2% in [6], 0% in data set [9] and 0% in [10]. For the same compound, the AUC at 6 h in data set [7] turned out to be 15.8 µM·h. The Kp at 6 h in [8] was determined as 3.2. Also, the concentration at 6 h in data set [11] worked out at 1800 ng/g.
Consider `COc1cc(/C=C2\CCCN3CCC(c4ccc(F)cc4)ON=C23)ccc1-n1cnc(C)c1` (configuration not stated), for which the Ratio in data set [1] is 465. Moreover, at hERG, the inhibition at 10 µM stood at 93%. Further, the IC50 at Gamma-secretase turned out to be 0.043 µM.
In the case of `CCCO[C@@H]1CON=C2/C(=C/c3ccc(-n4cnc(C)c4)c(OC)c3)CCCN2[C@H]1c1cc(F)cc(F)c1`, the Ratio in data set [1] stood at 16. Also, 10 µM produced 42% inhibition against hERG. The IC50 on Gamma-secretase stood at 1.26 µM.
On the same counts, the results for `COc1cc(/C=C2\CCCN3CCC(c4cc(F)cc(Cl)c4)ON=C23)ccc1-n1cnc(C)c1` (configuration not stated) are 262, 61% and 0.064 µM.
As to `COc1cc(/C=C2\CCCN3C2=NOCC[C@@H]3c2ccc(F)cc2)ccc1-n1cnc(C)c1`, in [1], the Ratio was 409. Also, the inhibition in vivo at 10 mg/kg in the data set with Rattus norvegicus [2] was 40%. This compound also yielded an inhibition at 10 µM on hERG of 81%. Moreover, on Gamma-secretase, the IC50 turned out to be 0.049 µM.
On to `COc1cc(/C=C2\CCCN3C2=NOC[C@@H](O)[C@@H]3c2cc(F)cc(F)c2)ccc1-n1cnc(C)c1`, for which, in data set [1], the Ratio came to 83. Also, testing at 10 µM at hERG gave an inhibition of 55%. Besides, the IC50 at Gamma-secretase stood at 0.24 µM.
For the compound `COc1cc(/C=C2\CCCN3C2=NOC(C)CC3c2cc(F)c(F)c(F)c2)ccc1-n1cnc(C)c1` (mixture of isomers), the Ratio in data set [1] was found to be 480. At Gamma-secretase, the IC50 turned out to be 0.041 µM.
Take `COc1cc(/C=C2\CCCCN3C2=NOC[C@@H]3c2cc(F)c(F)c(F)c2)ccc1-n1cnc(C)c1`: the Ratio in data set [1] came to 32. Further, on Gamma-secretase, the IC50 was found to be 0.088 µM.
For the compound `COc1cc(/C=C2\CCCN3CC(c4ccc(F)cc4)CON=C23)ccc1-n1cnc(C)c1` (configuration not stated), the Ratio in data set [1] was 150. The same compound showed an inhibition at 10 µM at hERG of 90%. On Gamma-secretase, the IC50 was determined as 0.13 µM.
As for `COc1cc(/C=C2\CCCN3C2=NOCC[C@@H]3c2ccc(Cl)c(F)c2)ccc1-n1cnc(C)c1`, the Ratio in [1] came out at 210. In addition, the inhibition in vivo at 10 mg/kg with Rattus norvegicus [2] turned out to be 57%. Further, the IC50 at Gamma-secretase stood at 0.095 µM.
